The values that follow are results of earlier work, collected in US12440482B2, “1,4-dihydropyridine compositions, methods of making and use” (American Regent, Inc., priority 2019, dated 2025).

Take `COC(=O)C1=C(C)NC(C)=C(C(=O)OCCN(C)Cc2ccccc2)C1c1cccc([N+](=O)[O-])c1` (stereo not shown) [nicardipine]: the solubility in water entry is “only slightly soluble”.
